According to patent US20200270309A1, “MALEIMIDE GROUP-MODIFIED ANGIOGENESIS INHIBITOR HM-1 AND USE THEREOF” (NANJING ANJI BIOLOGICAL TECHNOLOGY CO., LTD, priority 2017, published 2020):
Read-outs that look alike come from different tables or passages of the source. Ends that are not written are not given here. Peptide text beside a SMILES is read from it. * marks the point of attachment. Mal(CH2CH2O)6CH2CH2CO = O=C1C=CC(=O)N1CCOCCOCCOCCOCCOCCOCCC(=O)*; Hexanoyl(6-maleimido) = O=C1C=CC(=O)N1CCCCCC(=O)*; Propanoyl(3-maleimido) = O=C1C=CC(=O)N1CCC(=O)*; X26 = O=C1C=CC(=O)N1CCOCCOCCOCCOCCOCCCCC(=O)*; X37 = O=C1C=CC(=O)N1c1ccc(CCCCCC(=O)*)cc1; X17 = O=C1C=CC(=O)N1CCOCCOCCCCCCCC(=O)*; X16 = O=C1C=CC(=O)N1CCOCCOCCCCCCC(=O)*; X31 = O=C1C=CC(=O)N1CCOCCOCCOCC(=O)*; X67 = O=C1C=CC(=O)N1CCCCCCCCCC(=O)*; X30 = O=C1C=CC(=O)N1CCOCCOCC(=O)*; X1 = O=C1C=CC(=O)N1CCOCCCC(=O)*; X38 = O=C1C=CC(=O)N1CCOCC(=O)*

Assay: Half-lives and pharmacokinetic parameters of polypeptides vs HM-1
Set-up: AUC0-∞: concentration or dose not given beside the values
Details: in vivo
[1] = read-out: T1/2β (half-life) (converted)

| Molecule | AUC(0-inf) [ng·h/mL] | MRT inf [h] | clearance [mL/min/kg] | half-life (T1/2β (half-life)) [h] | also measured |
| --- | --- | --- | --- | --- | --- |
| H-RGADRAGGGGRGD [HM-1, Arg-Gly-Ala-Asp-Arg-Ala-Gly-Gly-Gly-Gly-Arg-Gly-Asp] | – | – | – | – | AUC(0-inf) (read-out: AUC0-∞): 32800 ± 8410 ng·h/mL; clearance (read-out: CL (converted)): 24.8 mL/min/kg; MRT inf (read-out: MRT0-∞): 0.068 ± 0.012 h; half-life [1]: 0.35 ± 0.14 h; half-life (read-out: half-life (converted)): 0.34 h |
| C[C@H](NC(=O)CNC(=O)[C@H](CCCNC(=N)N)NC(=O)CCCCCCCCCN1C(=O)C=CC1=O)C(=O)N[C@@H](CC(=O)O)C(=O)N[C@@H](CCCNC(=N)N)C(=O)N[C@@H](C)C(=O)NCC(=O)NCC(=O)NCC(=O)NCC(=O)N[C@@H](CCCNC(=N)N)C(=O)NCC(=O)N[C@@H](CC(=O)O)C(=O)O [X9] (X67-RGADRAGGGGRGD-OH) | 31200 ± 7350 | 56 ± 13.3 | 0.537 | 38.78 ± 0.31 | – |
| C[C@H](NC(=O)[C@H](CCCNC(=N)N)NC(=O)[C@H](CC(=O)O)NC(=O)[C@H](CCC(=O)O)NC(=O)CNC(=O)[C@H](CCCNC(=N)N)NC(=O)CCCCCN1C(=O)C=CC1=O)C(=O)NCC(=O)NCC(=O)NCC(=O)NCC(=O)N[C@@H](CCCNC(=N)N)C(=O)NCC(=O)N[C@@H](CC(=O)O)C(=O)O [P6] ({Hexanoyl(6-maleimido)}-RGEDRAGGGGRGD-OH; C-terminus assumed) | 27700 ± 7130 | 49.6 ± 9.97 | 0.602 | – | half-life: 34.36 ± 0.25 h |
| CC[C@H](C)[C@H](NC(=O)[C@H](Cc1c[nH]cn1)NC(=O)[C@H](CCC(N)=O)NC(=O)[C@H](CCCNC(=N)N)NC(=O)CCN1C(=O)C=CC1=O)C(=O)N[C@@H](Cc1ccccc1)C(=O)N1CCC[C@H]1C(=O)N[C@@H](CO)C(=O)N[C@@H](Cc1c[nH]c2ccccc12)C(=O)N[C@@H](Cc1c[nH]c2ccccc12)C(=O)N[C@@H](Cc1ccccc1)C(=O)N[C@@H](Cc1c[nH]c2ccccc12)C(=O)N[C@@H](Cc1ccc(O)cc1)C(=O)N[C@@H](Cc1ccc(O)cc1)C(=O)N1CCC[C@H]1C(=O)N[C@@H](CC(=O)O)C(=O)N[C@@H](CCCNC(=N)N)C(=O)N[C@@H](CC(C)C)C(=O)N[C@@H](CCCCN)C(=O)N[C@@H](CCSC)C(=O)N[C@@H](CCCNC(=N)N)C(=O)NCC(=O)N[C@@H](CC(=O)O)C(=O)O [P3] ({Propanoyl(3-maleimido)}-RQHIFPSWWFWYYPDRLKMRGD-OH; C-terminus assumed) | – | – | – | – | AUC0-∞: 0.0319 ± 0.0076 mg/L/h; half-life [1]: 38.89 ± 0.3 h |
| C[C@H](NC(=O)CNC(=O)[C@H](CCCNC(=N)N)NC(=O)CCCCCc1ccc(N2C(=O)C=CC2=O)cc1)C(=O)N[C@@H](CC(=O)O)C(=O)N[C@@H](CCCNC(=N)N)C(=O)N[C@@H](C)C(=O)NCC(=O)NCC(=O)NCC(=O)NCC(=O)N[C@@H](CCCNC(=N)N)C(=O)NCC(=O)N[C@@H](CC(=O)O)C(=O)O [X41] (X37-RGADRAGGGGRGD-OH) | 26500 ± 7810 | 47.5 ± 13.9 | 0.628 | 32.9 ± 0.36 | – |
| CSCC[C@H](NC(=O)[C@H](Cc1c[nH]cn1)NC(=O)[C@H](CCC(N)=O)NC(=O)[C@H](CCCNC(=N)N)NC(=O)CCCCCN1C(=O)C=CC1=O)C(=O)N[C@@H](Cc1ccccc1)C(=O)N[C@@H](CO)C(=O)N[C@@H](Cc1c[nH]c2ccccc12)C(=O)N[C@H](C(=O)N[C@@H](CC(C)C)C(=O)N[C@@H](C)C(=O)N[C@@H](CCCNC(=N)N)C(=O)N[C@@H](CC(N)=O)C(=O)N[C@@H](CC(=O)O)C(=O)N[C@@H](CCC(N)=O)C(=O)N[C@@H](CCC(=O)O)C(=O)N[C@@H](CCC(=O)O)C(=O)N[C@@H](CCCNC(=N)N)C(=O)NCC(=O)N[C@@H](CC(=O)O)C(=O)O)C(C)C [P2] ({Hexanoyl(6-maleimido)}-RQHMFSWVLARNDQEERGD-OH; C-terminus assumed) | – | – | – | – | AUC0-∞: 0.0350 ± 0.0076 mg/L/h; half-life [1]: 35.48 ± 0.3 h |
| C[C@H](NC(=O)CNC(=O)[C@H](CCCNC(=N)N)NC(=O)COCCN1C(=O)C=CC1=O)C(=O)N[C@@H](CC(=O)O)C(=O)N[C@@H](CCCNC(=N)N)C(=O)N[C@@H](C)C(=O)NCC(=O)NCC(=O)NCC(=O)NCC(=O)N[C@@H](CCCNC(=N)N)C(=O)NCC(=O)N[C@@H](CC(=O)O)C(=O)O [X49] (X38-RGADRAGGGGRGD-OH) | – | – | – | – | AUC(0-inf) (read-out: AUC0-∞): 28500 ± 7290 ng·h/mL; clearance (read-out: CL (converted)): 0.585 mL/min/kg; MRT inf (read-out: MRT0-∞): 51 ± 11.1 h; half-life [1]: 35.31 ± 0.32 h |

Continued, in another order:

| AUC(0-inf) [ng·h/mL] | MRT inf [h] | clearance [mL/min/kg] | half-life (T1/2β (half-life)) [h] | Molecule | also measured |
| --- | --- | --- | --- | --- | --- |
| 32300 ± 7650 | 57.7 ± 13.3 | 0.517 | 39.97 ± 0.31 | C[C@H](NC(=O)CNC(=O)[C@H](CCCNC(=N)N)NC(=O)COCCOCCOCCN1C(=O)C=CC1=O)C(=O)N[C@@H](CC(=O)O)C(=O)N[C@@H](CCCNC(=N)N)C(=O)N[C@@H](C)C(=O)NCC(=O)NCC(=O)NCC(=O)NCC(=O)N[C@@H](CCCNC(=N)N)C(=O)NCC(=O)N[C@@H](CC(=O)O)C(=O)O [X63] (X31-RGADRAGGGGRGD-OH) | – |
| 25600 ± 7550 | 45.7 ± 13.6 | 0.652 | 31.69 ± 0.28 | C[C@H](NC(=O)CNC(=O)[C@H](CCCNC(=N)N)NC(=O)CCCCCCOCCOCCN1C(=O)C=CC1=O)C(=O)N[C@@H](CC(=O)O)C(=O)N[C@@H](CCCNC(=N)N)C(=O)N[C@@H](C)C(=O)NCC(=O)NCC(=O)NCC(=O)NCC(=O)N[C@@H](CCCNC(=N)N)C(=O)NCC(=O)N[C@@H](CC(=O)O)C(=O)O [X61] (X16-RGADRAGGGGRGD-OH) | – |
| 33100 ± 8520 | 59.1 ± 10.4 | 0.505 | 40.97 ± 0.26 | C[C@H](NC(=O)CNC(=O)[C@H](CCCNC(=N)N)NC(=O)CCOCCOCCOCCOCCOCCOCCN1C(=O)C=CC1=O)C(=O)N[C@@H](CC(=O)O)C(=O)N[C@@H](CCCNC(=N)N)C(=O)N[C@@H](C)C(=O)NCC(=O)NCC(=O)NCC(=O)NCC(=O)N[C@@H](CCCNC(=N)N)C(=O)NCC(=O)N[C@@H](CC(=O)O)C(=O)O [X85] ({Mal(CH2CH2O)6CH2CH2CO}-RGADRAGGGGRGD-OH) | – |
| 32900 ± 8070 | 59 ± 10.1 | 0.507 | 40.86 ± 0.29 | C[C@H](NC(=O)CNC(=O)[C@H](CCCNC(=N)N)NC(=O)COCCOCCN1C(=O)C=CC1=O)C(=O)N[C@@H](CC(=O)O)C(=O)N[C@@H](CCCNC(=N)N)C(=O)N[C@@H](C)C(=O)NCC(=O)NCC(=O)NCC(=O)NCC(=O)N[C@@H](CCCNC(=N)N)C(=O)NCC(=O)N[C@@H](CC(=O)O)C(=O)O [X56] (X30-RGADRAGGGGRGD-OH) | – |
| 34500 ± 7330 | 61.6 ± 11.7 | 0.483 | 42.72 ± 0.25 | C[C@H](NC(=O)CNC(=O)[C@H](CCCNC(=N)N)NC(=O)CCCCOCCOCCOCCOCCOCCN1C(=O)C=CC1=O)C(=O)N[C@@H](CC(=O)O)C(=O)N[C@@H](CCCNC(=N)N)C(=O)N[C@@H](C)C(=O)NCC(=O)NCC(=O)NCC(=O)NCC(=O)N[C@@H](CCCNC(=N)N)C(=O)NCC(=O)N[C@@H](CC(=O)O)C(=O)O [X80] (X26-RGADRAGGGGRGD-OH) | – |
| 26700 ± 8160 | 47.8 ± 12.3 | 0.625 | 33.09 ± 0.28 | C[C@H](NC(=O)CNC(=O)[C@H](CCCNC(=N)N)NC(=O)CCCCCCCOCCOCCN1C(=O)C=CC1=O)C(=O)N[C@@H](CC(=O)O)C(=O)N[C@@H](CCCNC(=N)N)C(=O)N[C@@H](C)C(=O)NCC(=O)NCC(=O)NCC(=O)NCC(=O)N[C@@H](CCCNC(=N)N)C(=O)NCC(=O)N[C@@H](CC(=O)O)C(=O)O [X62] (X17-RGADRAGGGGRGD-OH) | – |
| 32500 ± 7310 | 58.1 ± 9.42 | 0.513 | 40.28 ± 0.24 | C[C@H](NC(=O)CNC(=O)[C@H](CCCNC(=N)N)NC(=O)CCCOCCN1C(=O)C=CC1=O)C(=O)N[C@@H](CC(=O)O)C(=O)N[C@@H](CCCNC(=N)N)C(=O)N[C@@H](C)C(=O)NCC(=O)NCC(=O)NCC(=O)NCC(=O)N[C@@H](CCCNC(=N)N)C(=O)NCC(=O)N[C@@H](CC(=O)O)C(=O)O [X51] (X1-RGADRAGGGGRGD-OH) | – |
